From patent US10688093B2, “Methods, compositions, and uses of novel Fyn kinase inhibitors” (priority 2015, dated 2020)

These molecules were tested against full-length recombinant human FYN A (Homo sapiens (Human), UniProt P06241) (assay: ADP-Glo Kinase Assay of FYN kinase inhibition). Settings: primary screen, initial compounds.
Assay type: biochemical
Summary of the method: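 GST-tagged full-length FYN A (baculovirus, Sf9) at 3 pg preincubated 30 min RT with compound (10-point 3-fold series from 10 μM) in Tris pH 7.5/MgCl2 buffer. 12-mer tyrosine peptide plus 12.5 pmol ATP added, 90 min RT; ADP measured by ADP-Glo luminescence, IC50 from dose-response.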

Sequence of full-length recombinant human FYN A (P06241 whole entry): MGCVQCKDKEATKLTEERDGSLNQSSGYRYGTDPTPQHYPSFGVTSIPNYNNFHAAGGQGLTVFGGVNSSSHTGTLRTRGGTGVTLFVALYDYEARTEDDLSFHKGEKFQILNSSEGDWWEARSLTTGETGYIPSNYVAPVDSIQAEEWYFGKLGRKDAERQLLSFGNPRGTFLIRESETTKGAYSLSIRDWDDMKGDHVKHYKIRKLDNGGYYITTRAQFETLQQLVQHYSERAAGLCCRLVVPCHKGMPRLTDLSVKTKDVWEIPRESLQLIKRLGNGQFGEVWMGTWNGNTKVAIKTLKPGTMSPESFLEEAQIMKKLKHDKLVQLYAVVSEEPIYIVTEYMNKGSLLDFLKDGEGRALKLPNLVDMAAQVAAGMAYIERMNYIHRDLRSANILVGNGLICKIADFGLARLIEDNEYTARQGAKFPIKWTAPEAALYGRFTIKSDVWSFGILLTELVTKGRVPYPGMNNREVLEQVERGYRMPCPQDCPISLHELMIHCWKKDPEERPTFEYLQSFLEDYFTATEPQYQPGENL

SMILES | IC50
CN(C)CCNC(=O)c1ccc(-c2cn3c(-c4cccc(O)c4)cnc3cn2)cc1 [Compound 239, N-(2-dimethylamino-ethyl)-4-[3-(3-hydroxyphenyl)imidazo[1,2-a]pyrazin-6-yl]benzamide] | 812 nM
CN(C)CCNC(=O)c1ccc(-c2cn3c(-c4ccc(Cl)cc4)cnc3cn2)cc1 [Compound 240, 4-[3-(4-chlorophenyl)imidazo[1,2-a]pyrazin-6-yl]-N-(2-dimethylamino-ethyl)benzamide] | 4160 nM
Oc1cccc(-c2cnc3cnc(-c4ccc(NCCN5CCOCC5)nc4)cn23)c1 [Compound 241, 3-[6-[6-(2-morpholino-ethylamino)-3-pyridyl]imidazo [1,2-a]pyrazin-3-yl]phenol] | 2940 nM
CN(C)CCCNC(=O)c1ccc(-c2cn3c(-c4cccc(O)c4)cnc3cn2)cc1 [Compound 242, N-[3-(dimethylamino)propyl]-4-[3-(3-hydroxyphenyl)imidazo[1,2-a]pyrazin-6-yl]benzamide] | 1610 nM
O=C(NCCO)c1ccc(-c2cn3c(-c4cccc(O)c4)cnc3cn2)cc1 [Compound 243, N-(2-hydroxyethyl)-4-[3-(3-hydroxyphenyl)imidazo[1,2-a]pyrazin-6-yl]benzamide] | 1720 nM
CN(C)CCCNC(=O)c1ccc(-c2cn3c(-c4ccc5c(c4)OCO5)cnc3cn2)cc1 [Compound 244, 4-[3-(1,3-benzodioxol-5-yl)imidazo[1,2-a]pyrazin-6-yl]-N-[3-(dimethylamino)propyl]benzamide] | 6030 nM
CN1CCN(c2ccc(-c3cn4c(-c5ccccc5)cnc4cn3)cn2)CC1 [Compound 245, 6-[6-(4-methylpiperazin-1-yl)-3-pyridyl]-3-phenyl-imidazo[1,2-a]pyrazine] | 10900 nM
CC(C)N1CCN(c2ccc(-c3cn4c(-c5cccc(O)c5)cnc4cn3)cc2)CC1 [Compound 246, 3-[6-[4-(4-isopropyl-piperazin-1-yl)phenyl]imidazo [1,2-a]pyrazin-3-yl]phenol] | 2610 nM
Nc1ccc(-c2cn3c(-c4ccc5c(c4)OCO5)cnc3cn2)cn1 [Compound 247, 5-[3-(1,3-benzodioxol-5-yl)imidazo[1,2-a]pyrazin-6-yl]pyridin-2-amine] | 10200 nM
CN(C)CCCOc1ccc(-c2cn3c(-c4ccc(O)cc4)cnc3cn2)cn1 [Compound 248, 4-[6-[6-[3-(dimethylamino)propoxy]-3-pyridyl]imidazo [1,2-a]pyrazin-3-yl]phenol] | 1320 nM
Oc1ccc(-c2cnc3cnc(-c4ccc(NCCN5CCOCC5)nc4)cn23)cc1 [Compound 249, 4-[6-[6-(2-morpholino-ethylamino)-3-pyridyl]imidazo [1,2-a]pyrazin-3-yl]phenol] | 1310 nM
CN1CCN(c2ccc(-c3cn4c(-c5ccc(O)cc5)cnc4cn3)cn2)CC1 [Compound 250, 4-[6-[6-(4-methylpiperazin-1-yl)-3-pyridyl]imidazo [1,2-a]pyrazin-3-yl]phenol] | 2210 nM
CN(C)C(=O)c1cccc(-c2cnc3sc(NC4CCCCC4)nn23)c1 [Compound 251, 3-[2-(cyclo-hexylamino)imidazo[2,1-a] [1,3,4]thiadiazol-5-yl]-N,N-dimethyl-benzamide] | 718 nM
CN(C)C(=O)c1cccc(-c2cnc3sc(NCCc4ccc(S(N)(=O)=O)cc4)nn23)c1 [Compound 252, N,N-dimethyl-3-[2-[2-(4-sulfamoylphenyl)ethylamino]imidazo[2,1-a] [1,3,4]thiadiazol-5-yl]benzamide] | 909 nM
CN(C)C(=O)c1cccc(-c2cnc3sc(NC4CCC(O)CC4)nn23)c1 (centres unmarked) [Compound 253, 3-[2-[(4-hydroxycyclo-hexyl)amino]imidazo[2,1-b] [1,3,4]thiadiazol-5-yl]-N,N-dimethyl-benzamide] | 533 nM
CC(=O)c1cccc(-c2cnc3sc(NC4CCC(O)CC4)nn23)c1 (centres unmarked) [Compound 254, 1-[3-[2-[(4-hydroxycyclo-hexyl)amino]imidazo[2,1-a] [1,3,4]thiadiazol-5-yl]phenyl] ethanone] | 487 nM
COc1ccc(-c2cnn3c(N)c(-c4cccc(Cl)c4)cnc23)cc1OC [Compound 255, 6-(3-chlorophenyl)-3-(3,4-dimethoxyphenyl) pyrazolo[1,5-a]pyrimidin-7-amine] | 804 nM
CC(=O)Nc1cccc(-c2cnc3sc(NCc4ccco4)nn23)c1 [Compound 256, N-[3-[2-(2-furylmethylamino)imidazo[2,1-a] [1,3,4]thiadiazol-5-yl]phenyl] acetamide] | 4570 nM
CN(C)C(=O)c1cccc(-c2cnc3sc(NCC4CC4)nn23)c1 [Compound 257, 3-[2-(cyclopropyl-methylamino)imidazo[2,1-d] [1,3,4]thiadiazol-5-yl]-N,N-dimethyl-benzamide] | 977 nM
CC(C)CNc1nn2c(-c3cccc(C(=O)N(C)C)c3)cnc2s1 [Compound 258, 3-[2-(isobutylamino)imidazo[2,1-d] [1,3,4]thiadiazol-5-yl]-N,N-dimethyl-benzamide] | 283 nM
CN(C)C(=O)c1cccc(-c2cnc3sc(NCc4ccc(F)cc4)nn23)c1 [Compound 259, 3-[2-[(4-fluorophenyl)methylamino]imidazo[2,1-b] [1,3,4]thiadiazol-5-yl]-N,N-dimethyl-benzamide] | 2760 nM

SMILES | IC50
CC(=O)Nc1cccc(-c2cnc3sc(NCc4cccs4)nn23)c1 [Compound 260, N-[3-[2-(2-thienylmethyl-amino)imidazo [2,1-b] [1,3,4]thiadiazol-5-yl]phenyl] acetamide] | 3930 nM
Cn1cc(-c2cnc3sc(NCCc4ccc(S(N)(=O)=O)cc4)nn23)cn1 [Compound 261, 4-[2-[[5-(1-methylpyrazol-4-yl)imidazo[2,1-d][1,3,4]thiadiazol-2-yl]amino]ethyl] benzene-sulfonamide] | 2260 nM
CN(C)c1cccc(-c2cnc3sc(NC4CCC(O)CC4)nn23)c1 (centres unmarked) [Compound 262, 4-[[5-[3-(dimethylamino)phenyl]imidazo [2,1-a] [1,3,4]thiadiazol-2-yl]amino] cyclohexanol] | 5790 nM
CC(C)CNc1nn2c(-c3cccc(NS(C)(=O)=O)c3)cnc2s1 [Compound 263, N-[3-[2-(isobutylamino)imidazo[2,1-b] [1,3,4]thiadiazol-5-yl]phenyl] methane-sulfonamide] | 7070 nM
NC(=O)c1cccc(-c2cnc3sc(NCCCO)nn23)c1 [Compound 264, 3-[2-(3-hydroxypropyl-amino)imidazo [2,1-b][1,3,4]thiadiazol-5-yl]benzamide] | 2880 nM
Oc1ccc(-c2cnc3sc(NC4CCC(O)CC4)nn23)cc1 (centres unmarked) [Compound 265, 4-[2-[(4-hydroxycyclo-hexyl)amino]imidazo[2,1-b] [1,3,4]thiadiazol-5-yl]phenol] | 3800 nM
NC(=O)c1cccc(-c2cnc3sc(NCc4ccco4)nn23)c1 [Compound 266, 3-[2-(2-furylmethyl-amino)imidazo[2,1-b] [1,3,4]thiadiazol-5-yl]benzamide] | 1230 nM
COc1ccc(-c2cnc3sc(NCCc4ccc(S(N)(=O)=O)cc4)nn23)cn1 [Compound 267, 4-[2-[[5-(6-methoxy-3-pyridyl)imidazo [2,1-b] [1,3,4]thiadiazol-2-yl]amino]ethyl]benzene-sulfonamide] | 2610 nM
CN(C)C(=O)c1cccc(-c2cnc3sc(NCC4CCOCC4)nn23)c1 [Compound 268, N,N-dimethyl-3-[2-(tetrahydro-pyran-4-ylmethylamino)imidazo[2,1-b] [1,3,4]thiadiazol-5-yl]benzamide] | 2730 nM
COc1cncc(-c2cnc3sc(NCC(C)C)nn23)c1 [Compound 270, N-isobutyl-5-(5-methoxy-3-pyridyl)imidazo [2,1-b] [1,3,4]thiadiazol-2-amine] | 5170 nM
COc1cncc(-c2cnc3sc(NCc4ccc5c(c4)OCO5)nn23)c1 [Compound 271, N-(1,3-benzodioxol-5-ylmethyl)-5-(5-methoxy-3-pyridyl)imidazo [2,1-b] [1,3,4]thiadiazol-2-amine] | 448 nM
COc1cc(-c2cnc3ccc(-c4ccc(NC(C)=O)cc4)nn23)ccc1O [Compound 272, N-[4-[3-(4-hydroxy-3-methoxy-phenyl)imidazo [1,2-b]pyridazin-6-yl]phenyl] acetamide] | 169 nM
CC(=O)Nc1cccc(-c2cnc3ccc(-c4ccc5c(c4)OCO5)nn23)c1 [Compound 273, N-[3-[6-(1,3-benzodioxol-5-yl)imidazo[1,2-b]pyridazin-3-yl]phenyl] acetamide] | 1170 nM
CC(=O)Nc1cccc(-c2ccc3ncc(-c4ccc5c(c4)OCO5)n3n2)c1 [Compound 274, N-[3-[3-(1,3-benzodioxol-5-yl)imidazo[1,2-b]pyridazin-6-yl]phenyl] acetamide] | 1110 nM
CC(=O)Nc1cc(-c2ccc(C(=O)N3CCOCC3)cc2)cn2c(-c3cccc(C(C)=O)c3)cnc12 [Compound 275] | 2030 nM
CC(=O)Nc1cccc(-c2cnc3ccc(-c4cccc(OC(F)(F)F)c4)nn23)c1 [Compound 276, N-[3-[6-[3-(trifluoromethoxy)phenyl]imidazo [1,2-b]pyridazin-3-yl]phenyl] acetamide] | 1500 nM
COc1ccc(-c2ccc3ncc(-c4cccc(C(C)=O)c4)n3n2)cc1OC [Compound 277, 1-[3-[6-(3,4-dimethoxyphenyl)imidazo[1,2-b]pyridazin-3-yl]phenyl] ethanone] | 653 nM
CC(=O)Nc1cccc(-c2cnc3ccc(-c4ccc(S(C)(=O)=O)cc4)nn23)c1 [Compound 278, N-[3-[6-(4-methylsulfonyl-phenyl)imidazo [1,2-b]pyridazin-3-yl]phenyl] acetamide] | 1080 nM
CC(=O)Nc1cccc(-c2ccc3ncc(-c4cccc(NC(C)=O)c4)n3n2)c1 [Compound 279, N-[3-[3-(3-acetamidophenyl)imidazo[1,2-b]pyridazin-6-yl]phenyl] acetamide] | 553 nM
COc1ccc(CNc2nn3c(-c4cccc(C(=O)N(C)C)c4)cnc3s2)cc1 [Compound 280, 3-[2-[(4-methoxyphenyl)methylamino]imidazo[2,1-b] [1,3,4]thiadiazol-5-yl]-N,N-dimethyl-benzamide] | 2330 nM
